Values joined by “and” are separate entries in the source; they are usually repeats but may differ in a detail not shown here. Equal entries are not always repeated.
What was measured:
[1] = xn = mol fraction of the nth substance listed

CS(C)=O
Conditions | viscosity
293.15 K, 100 kPa | 2.11 mPa·s and 2.23 mPa·s and 2.239 mPa·s
298 K, 101.3 kPa | 2.024 mPa·s
298.15 K, 101 kPa | 1.79 mPa·s
298.15 K, 101.3 kPa | 1.944 mPa·s and 1.926 mPa·s
298.15 K, 101.33 kPa | 1.848 mPa·s
299 K, 101 kPa | 3.143 mPa·s
302.4 K, 101 kPa | 3.676 mPa·s
303.15 K, 100 kPa | 1.79 mPa·s
303.15 K, 101.3 kPa | 1.788 mPa·s and 1.788 mPa·s (2×) and 1.788 mPa·s
308.15 K, 100 kPa | 1.63 mPa·s
308.15 K, 101.33 kPa | 1.498 mPa·s
313.15 K, 100 kPa | 1.5 mPa·s
313.15 K, 101.33 kPa | 1.449 mPa·s and 1.619 mPa·s
318.15 K, 101.3 kPa | 1.31 mPa·s and 1.31 mPa·s
318.15 K, 101.33 kPa | 1.317 mPa·s
323.15 K, 101.3 kPa | 1.284 mPa·s
323.15 K, 101.33 kPa | 1.221 mPa·s and 1.433 mPa·s

C[N+](C)(C)CCC[n+]1ccccc1.N#C[N-]C#N.N#C[N-]C#N
100 kPa
Conditions | viscosity
293.15 K | 2191 mPa·s and 2191 mPa·s
298.15 K | 1306 mPa·s
303.15 K | 830.8 mPa·s and 830.8 mPa·s
308.15 K | 557.7 mPa·s
313.15 K | 386 mPa·s and 386 mPa·s
318.15 K | 280.7 mPa·s
323.15 K | 210.2 mPa·s and 210.2 mPa·s

OC1CCCCC1
viscosity
Conditions | 293.15 K | 298.15 K | 303.15 K | 308 K | 308.15 K | 313.15 K | 318.15 K | 318.16 K | 323.15 K
100 kPa | 83.29 mPa·s | 58.97 mPa·s | 43.42 mPa·s | – | 33.66 mPa·s and 32.39 mPa·s | 25.52 mPa·s and 25.85 mPa·s | 20.14 mPa·s | 19.5 mPa·s | –
101 kPa | – | – | 23.6 mPa·s and 39.55 mPa·s | 27.95 mPa·s | 27.95 mPa·s | – | – | – | 8.89 mPa·s

C1CCCCCCC1 + c1ccccc1
[1], 303.15 K, 101 kPa
Conditions | viscosity [mPa·s]
x1 = 0.1002 | 0.5993
x1 = 0.2 | 0.6484
x1 = 0.2967 | 0.7078
x1 = 0.3983 | 0.788
x1 = 0.4982 | 0.8861
x1 = 0.6999 | 1.179
x1 = 0.8961 | 1.654

CCCCC + c1ccccc1
[1], 298.15 K, 101.33 kPa
Conditions | viscosity [mPa·s]
x2 = 0.1622 | 0.241
x2 = 0.3515 | 0.274
x2 = 0.4439 | 0.295
x2 = 0.5608 | 0.328
x2 = 0.6851 | 0.375
x2 = 0.8001 | 0.434
x2 = 0.9056 | 0.505

CCCCCCCO + c1ccccc1
viscosity [mPa·s], [1], 100 kPa
Conditions | x2 = 0.0864 | x2 = 0.1561 | x2 = 0.2397 | x2 = 0.3469 | x2 = 0.4396 | x2 = 0.5661 | x2 = 0.6446 | x2 = 0.7517 | x2 = 0.8493 | x2 = 0.9561
293.15 K | 5.514 | 4.58 | 3.709 | 2.802 | 2.132 | 1.412 | 1.117 | 0.875 | 0.766 | 0.681
303.15 K | 3.992 | 3.302 | 2.668 | 2.018 | 1.568 | 1.053 | 0.859 | 0.703 | 0.625 | 0.573
313.15 K | 2.947 | 2.439 | 1.973 | 1.501 | 1.172 | 0.822 | 0.679 | 0.573 | 0.525 | 0.498
323.15 K | 2.279 | 1.918 | 1.573 | 1.203 | 0.942 | 0.665 | 0.556 | 0.479 | 0.442 | 0.437

CS(C)=O + c1ccccc1
viscosity [mPa·s], [1], 101.3 kPa
Conditions | x1 = 0.1043 | x1 = 0.2048 | x1 = 0.3059 | x1 = 0.4069 | x1 = 0.5105 | x1 = 0.6085 | x1 = 0.7063 | x1 = 0.8049 | x1 = 0.9029
298.15 K | 0.669 | 0.743 | 0.829 | 0.923 | 1.036 | 1.169 | 1.317 | 1.492 | 1.712
303.15 K | 0.622 | 0.69 | 0.766 | 0.853 | 0.955 | 1.071 | 1.207 | 1.367 | 1.562
308.15 K | 0.581 | 0.643 | 0.714 | 0.796 | 0.884 | 0.99 | 1.111 | 1.258 | 1.426

CCC(N)=O + c1ccncc1
[1], 298.15 K, 101 kPa
Conditions | viscosity [mPa·s]
x1 = 0.0852 | 1.047
x1 = 0.1462 | 1.208
x1 = 0.2521 | 1.615
